Reference: PMC4009755, “High-Throughput Screen of Natural Product Libraries for Hsp90 Inhibitors” (Biology, 2014)
Like-named read-outs stand apart in the source and are kept apart here. Blank lines part the entries; values can stand above or below the molecule they belong to.

Key:
[1] = molecular target: Hsp90 chaperone machinery present in rabbit reticulocyte lysate; assay: Hsp90-dependent refolding of thermally denatured luciferase in rabbit reticulocyte lysate (high-throughput screen and titration); format: biochemical; conditions: for Inhibition of Hsp90-dependent refolding of luciferase in the initial screen: 12.5 µg/mL (Analyticon compounds 40 µM), Microsource screen used a cut-off of 70% inhibition
Procedure: Rabbit reticulocyte lysate, prepared by lysing one volume of packed reticulocytes in two volumes of deionized water, followed by centrifugation for twenty minutes at 15,000 × g, was purchased from Green Hectares (Oregon, WI, USA).
Recombinant luciferase from Promega was diluted to 0.5 mg/mL in buffer consisting of 25 mM Tricine–HCl (pH 7.8), 8 mM MgSO4, 0.1 mM EDTA, and 10 mg/mL acetylated BSA. Next, the solution was adjusted to include 10% glycerol and 1% Triton X-100. Finally, the luciferase solution was heated to ~41°. Once the activity of the luciferase reached ~1% of its initial value, the mixture was placed on ice, or flash frozen in liquid nitrogen and placed at −80° for storage.
To prepare the denatured luciferase for use in re-folding assays, 125 µL of the 0.5 mg/mL mixture was added into a 10 mL mixture containing 80 mM Tris HCl, pH 7.7, 8 mM Mg(OAc)2, 300 mM KCl, 12 mM ATP, and 20 mM creatine phosphate, and 0.8 mg/mL creatine phosphokinase.
The assay buffer, which contains the luciferase substrate luciferin, consisted of 75 mM Tricine-HCl, pH 7.8, 24 mM MgSO4, 300 µM EDTA, 2 mM DTT, 313 µM D-luciferin, 640 µM coenzyme A, 660 µM ATP, 150 mM KCl, 10% (v/v) Triton X-100, 20% (v/v) glycerol, and 3.5% DMSO.
The libraries were screened for compounds that inhibited the refolding of thermally denatured luciferase using a high-throughput assay carried out with a slight modification of the method previously described. Briefly, compounds were reconstituted in 100% DMSO. Stocks of compounds purchased from Microsource, TimTec, Biofocus and BioMol were reconstituted to a concentration of 1 mg/mL. The stocks were diluted 40-fold into nano-pure water with the compounds being used at a final concentration of 12.5 µg/mL for the assay. Analyticon compounds (0.2 µmol) were reconstituted to a concentration of 4 mM, and were used at a final concentration of 40 µM in the assay. Assays were performed in 96-well microplates. To each well was added 30 µL of the water/DMSO compound solution, 15 µL of the reticulocyte lysate preparation, and 15 µL of the luciferase reagent. The plates were agitated and then allowed to incubate at 25 °C for one to three hours. After the incubation, 60 µL of assay buffer containing luciferin was added to each well. The plates were then read in a Molecular Devices LMaxII^384 microplate reader, and luminescence was measured in relative light units, with an integration time of 10 s. Compounds that inhibited luciferase refolding by approximately fifty percent or greater were then titrated into a refolding reaction containing native luciferase, to eliminate false positive hits that were direct inhibitors of luciferase as previously described. Compounds were classified as a potential Hsp90 inhibitor if they inhibited luciferase refolding by 60% or greater and there was no inhibition of the activity of native luciferase at the compound’s IC50 (concentration of the compound that inhibits luciferase refolding by 50%).
The titrations were repeated twice. For a more accurate determination of the IC50s for the compounds studied in Section 3.2.1 of this manuscript, a two-fold […] series of the compounds were used in triplicate, with the experiment being repeated three times.

[2] = test system: heme-regulated eIF2α kinase (HRI); assay: Hsp90-dependent maturation of the heme-regulated eIF2α kinase (HRI) in reticulocyte lysate; format: biochemical, rabbit; conditions: heme-deficient lysate, mobility shift on PAGE
Procedure: [^35S]-Labeled His-tagged HRI was translated by coupled transcription/translation for 20 min in TnT reticulocyte lysate at 30 °C. Drugs or DMSO vehicle control were then added. After an additional 10 min, the reactions (4 µL aliquots) were diluted into 28 µL volumes of heme-supplemented control lysate or heme-deficient lysate, containing the same respective drugs and DMSO vehicle control. The samples were allowed to incubate for another 40 min at 37 °C. The [^35S]-Labeled His-tagged HRI was then adsorbed from the reactions with NTA-Ni^2+ agarose resin for 1 h at 4 °C. The agarose resins were the washed four times total, in P50T, P100T 2X, and P50T again. SDS sample buffer was then added to the pellets, the samples boiled, and then separated on an 8% PAGE gel, and transferred to PVDF membrane. Membranes were dried and exposed to X-ray film for autoradiography.

[3] = test system: Hsp90-dependent client proteins Cdk6, pAkt, Her2; Hsp90 and Hsp70 in MCF7 cells; assay: Inhibitor-dependent depletion of Hsp90-dependent clients from MCF7 cells (Western blot); format: cell-based, human; conditions: 24 h
Procedure: MCF7 cells were grown to confluence in Advanced DMEM/F12 (1:1; Gibco) supplemented with L-glutamine (2 mM), streptomycin (500 µg/mL), and penicillin (100 units/mL) and re-seeded at 0.4 × 10^6 cells/well/2 mL. Cells were incubated in a humidified atmosphere (37 °C, 5% CO2) for 24 h and treated with varying concentrations of compound or 0.5 µM geldanamycin in DMSO (0.25% DMSO final concentration), or vehicle (DMSO) for 24 h. Cells were harvested in cold PBS and lysed using MPER (Thermo Scientific/Pierce, USA) supplemented with protease and phosphatase inhibitors (Roche Applied Science, USA) according to manufacturer’s directions. Lysates were clarified at 14,000 g for 15 min at 4 °C. Protein concentrations were determined using the Pierce BCA protein assay kit per the manufacturer’s instructions. Equal amounts of protein (15 μg) were electrophoresed under reducing conditions (10% acrylamide gels), transferred to PVDF, and immunoblotted with the corresponding antibody (Anti-pAkt, -Her2, and -Cdk6 antibodies were from Cell Signaling; anti-actin was from Santa Cruz Biotechnology; and anti-Hsp90 and -Hsp70 were from Enzo Lifesciences). Membranes were incubated with an appropriate horseradish peroxidase-labeled secondary antibody, developed with a chemiluminescent substrate, and visualized.

MCF7 breast cancer cells = assay: Antiproliferation assay (MTS), MCF7 cells; format: cell-based; conditions: Homo sapiens
Procedure: MCF7 cells were grown in Gibco Dulbecco’s Modified Essential Medium, supplemented with non-essential amino acids, 2 mM glutamine, and 10% fetal bovine serum. Cells were seeded at 2,000 cells per well in clear 96-well plates containing 100 µL of media per well, and the cells were allowed to attach overnight. The next day, serial dilutions of compounds in DMSO or DMSO control was added to the wells. Cells were then incubated at 37 °C for 48 h. Cell viability was determined using the Promega Cell Titer 96 Aqueous One Solution Cell Proliferation Assay, which makes use of a soluble tetrazolium compound that is converted into a chromophore by living cells. After incubation with compounds, 20 µL of the assay substrate solution were added to the wells, and the plate was incubated at 37 °C for an additional hour. The plate was then read at absorbance at 490 nm using a Molecular Devices Versamax plate reader. Values are expressed as percent DMSO control. All experiments were done in triplicate.

Plasmodium falciparum = test system: Plasmodium falciparum; parameters: method as in PMID 17913482; conditions: cited from earlier work
[4] = MCF7 cells, 48 h, MTS assay, read-out: IC50 MCF7 proliferation

Molecule: Tyrothricin [Compound 74]
IC50 [1]: ~5 µM

Inhibition of Hsp90-dependent maturation of HRI ([2]; 20 µM): inhibited the maturation of HRI
Molecule: COC1=C2C[C@@H](C)C[C@H](OC)[C@H](O)[C@@H](C)/C=C(\C)[C@H](OC(N)=O)[C@@H](OC)/C=C\C=C(/C)C(=O)NC(=CC1=O)C2=O [geldanamycin, reference compound]
Expression of Hsp70 ([3]; 0.5 µM): increase in the expression of Hsp70

Molecule: CC(=O)c1c(O)c(C)c(O)c(Cc2c(O)c3c(c(C(=O)/C=C/c4ccccc4)c2O)OC(C)(C)C=C3)c1O [Compound 47, Rottlerin]
IC50 [1]: ~60 µM
IC50 ([1]; read-out: IC50 luciferase refolding): 63 ± 5 µM
IC50 (MCF7 breast cancer cells; [4]): 7 ± 3 µM
Inhibition of Hsp90-dependent maturation of HRI ([2]; 100 µM): inhibited the maturation of HRI
Depletion of Hsp90 clients (Cdk6, pAkt, Her2) ([3]; varying concentrations): concentration-dependent depletion
Expression of Hsp70 ([3]; varying concentrations): concentration-dependent increase
Expression of Hsp90 ([3]; varying concentrations): None of the compounds increased the expression of Hsp90

Molecule: CC(C)=CCC[C@]1(C)C=Cc2c(O)c3c(c(CC=C(C)C)c2O1)O[C@]12C(=C[C@@H]4C[C@H]1C(C)(C)O[C@@]2(C/C=C(/C)C(=O)O)C4=O)C3=O [Compound 35, Gambogic acid]
Inhibition of Hsp90-dependent refolding of luciferase in the initial screen [1]: consistently identified as hits

Molecule: CC1=CC(=O)c2c(O)cccc2C1=O [Compound 84, Plumbagin]
Inhibition of Hsp90-dependent refolding of luciferase in the initial screen [1]: consistently identified as hits

Molecule: C=C1C(=O)O[C@@H]2C[C@@H](C)[C@@H]3C=CC(=O)[C@@]3(C)[C@@H](O)[C@H]12 [Compound 9, Helenalin]
IC50 [1]: ~80 µM

Molecule: O=c1cc(-c2ccc(O)c(O)c2)oc2cc(O)cc(O)c12 [Compound 31, Luteolin]
Inhibition of Hsp90-dependent refolding of luciferase in the initial screen [1]: no inhibitory activity in one of the screens

Molecule: C=C1CCC(O)CC1=CC=C1CCCC2(C)C1CCC2C(C)CCCC(C)C (centres unmarked) [Compound 98]
IC50 [1]: ~60 µM

IC50 (MCF7 breast cancer cells; [4]): 4 ± 0.6 µM
Inhibition of Hsp90-dependent maturation of HRI ([2]; 100 µM): inhibited the maturation of HRI
Molecule: C=C(C)[C@@H](CC=C(C)C)C[C@@]12C[C@@H](CC=C(C)C)C(C)(C)[C@@](CC=C(C)C)(C(=O)C(C(=O)c3ccc(O)c(O)c3)=C1O)C2=O [Garcinol]
Depletion of Hsp90 clients (Cdk6, pAkt, Her2) ([3]; varying concentrations): concentration-dependent depletion
Expression of Hsp70 ([3]; varying concentrations): no effect
Expression of Hsp90 ([3]; varying concentrations): None of the compounds increased the expression of Hsp90

Molecule: COc1c2c3c4c(c(OC)c(=O)c5c(O)cc(OC)c(c6c(OC)cc(O)c(c1=O)c63)c54)[C@@H](C(C)=O)[C@@](C)(O)C2 [Compound 116, Hypocrellin A]
IC50 [1]: 5 to 10 µM

Inhibition of Hsp90-dependent refolding of luciferase in the initial screen [1]: consistently identified as hits
Molecule: COc1cc(/C=C/C(=O)CC(=O)/C=C/c2ccc(O)c(OC)c2)ccc1O [Compound 40, Curcumin]

Molecule: COC(=O)[C@]1(C)CC[C@]2(C)CC[C@]3(C)C4=CC=C5C(=CC(=O)C(O)=C5C)[C@]4(C)CC[C@@]3(C)[C@@H]2C1 [Compound 49, Celastrol methyl ester]
IC50 [1]: ~2 µM

Inhibition of Hsp90-dependent maturation of HRI [2]: inhibited the maturation of HRI
Molecule: CO[C@@H]1[C@@H](OC(N)=O)[C@@H](O)[C@H](Oc2ccc3c(O)c(NC(=O)c4ccc(O)c(CC=C(C)C)c4)c(=O)oc3c2C)OC1(C)C [novobiocin, reference compound]

Molecule: L-Adrenaline [Compound 99]
IC50 [1]: ~55 µM

Molecule: CC(=O)O[C@@H]1C[C@@]2(C)[C@H](c3ccoc3)C[C@H]3O[C@]32[C@]2(C)C(=O)C(O)=C3C(C)(C)C(=O)C=C[C@]3(C)[C@@H]12 [Compound 50, Anthothecol]
Fold higher activity than gedunin ([1]; relative to the Hsp90 inhibitor gedunin, assay not specified): approximately 10 fold
IC50 (MCF7 breast cancer cells; [4]): 0.5 ± 0.06 µM
Inhibition of Hsp90-dependent maturation of HRI ([2]; 100 µM): inhibited the maturation of HRI
Depletion of Hsp90 clients (Cdk6, pAkt, Her2) ([3]; varying concentrations): concentration-dependent depletion
Expression of Hsp70 ([3]; varying concentrations): concentration-dependent increase
Expression of Hsp90 ([3]; varying concentrations): None of the compounds increased the expression of Hsp90
Activity against the growth of Plasmodium falciparum in erythrocytes (Plasmodium falciparum): low micromolar activity

Molecule: COc1cc(/C=C/C(=O)N2CCC=CC2=O)cc(OC)c1OC [Piplartine]
IC50 (MCF7 breast cancer cells; MCF7, 48 h, read-out: IC50 MCF7 proliferation (µM)): 10 ± 3 µM
Inhibition of Hsp90-dependent maturation of HRI ([2]; 100 µM): inhibited the maturation of HRI
Depletion of Hsp90 clients (Cdk6, pAkt, Her2) ([3]; varying concentrations): concentration-dependent depletion
Expression of Hsp70 ([3]; varying concentrations): no effect
Expression of Hsp90 ([3]; varying concentrations): None of the compounds increased the expression of Hsp90

Inhibition of Hsp90-dependent maturation of HRI [2]: inhibited the maturation of HRI
Molecule: [Na+].[Na+].[O]=[Mo](=[O])([O-])[O-] [molybdate, sodium molybdate, reference compound]
